Strand notation (5' to 3'): a small letter for the sugar, then the base; units joined by * are phosphorothioate-linked, units joined directly phosphodiester-linked; [ ] holds rarer units or linkages, { } end groups; capitals alone tell only the bases. d = 2'-deoxy (DNA); m = 2'-O-methyl; f = 2'-fluoro
Test system: human EPAS1 (Hif2α) cDNA in psiCHECK2 (Renilla luciferase/EPAS1 fusion mRNA) in Hep3B cells
Test: Efficacy screen of Hif2α RNAi triggers in vitro, dual-luciferase reporter assay (1 nM and 0.1 nM)
Type: cell-based
Settings: Hep3B cells co-transfected with EPAS1-psiCHECK2, Renilla luciferase normalized to firefly luciferase
Summary of the method: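 Hep3B cells (10,000/well) co-transfected with chemically modified siRNA triggers at 1 nM and 0.1 nM plus 25 ng EPAS1-psiCHECK2 plasmid via LipoFectamine 2000. Knockdown measured as Renilla luciferase from the EPAS1 fusion mRNA, normalized to constitutive firefly luciferase by dual-luciferase assay.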

Substance | Relative Rluc-Hif2α (0.1 nM RNAi trigger) | Relative Rluc-Hif2α (1 nM RNAi trigger)
2342 (sense fCmAfAmCfUmCfCmAfAmCfGmUfAmUfGmUfGmGfAdT; antisense dTfCmCfAmCfAmUfAmCfGmUfUmGfGmAfGmUfUmGdT*dT; siRNA) [compound 2342] | 1.058 ± 0.064 | 0.549 ± 0.041
2343 (sense fCmUfCmCfAmAfCmGfUmAfUmGfUmGfGmUfUmAfAdT; antisense dTfUmAfAmCfCmAfCmAfUmAfCmGfUmUfGmGfAmGdT*dT; siRNA) [compound 2343] | 0.620 ± 0.208 | 0.254 ± 0.009
2344 (sense fUmCfCmAfAmCfGmUfAmUfGmUfGmGfUmUfAmUfAdT; antisense dTfAmUfAmAfCmCfAmCfAmUfAmCfGmUfUmGfGmAdT*dT; siRNA) [compound 2344] | 0.570 ± 0.071 | 0.276 ± 0.033
2345 (sense fCmCfAmAfCmGfUmAfUmGfUmGfGmUfUmAfUmCfAdT; antisense dTfGmAfUmAfAmCfCmAfCmAfUmAfCmGfUmUfGmGdT*dT; siRNA) [compound 2345] | 0.296 ± 0.096 | 0.129 ± 0.026
2346 (sense fAmAfCmGfUmAfUmGfUmGfGmUfUmAfUmCfUmGfAdT; antisense dTfCmAfGmAfUmAfAmCfCmAfCmAfUmAfCmGfUmUdT*dT; siRNA) [compound 2346] | 0.523 ± 0.133 | 0.273 ± 0.012
2347 (sense fUmUfAmUfAmUfCmUfGmGfGmUfUmAfAmGfUmGfAdT; antisense dTfCmAfCmUfUmAfAmCfCmCfAmGfAmUfAmUfAmAdT*dT; siRNA) [compound 2347] | 0.753 ± 0.092 | 0.530 ± 0.040
2348 (sense fCmCfAmCfGmGfCmCfUmGfUmAfCmGfGmAfCmAfAdT; antisense dTfUmGfUmCfCmGfUmAfCmAfGmGfCmCfGmUfGmGdT*dT; siRNA) [compound 2348] | 0.840 ± 0.270 | 0.454 ± 0.096
2349 (sense fAmCfGmGfCmCfUmGfUmAfCmGfGmAfCmAfCmUfAdT; antisense dTfAmGfUmGfUmCfCmGfUmAfCmAfGmGfCmCfGmUdT*dT; siRNA) [compound 2349] | 0.674 ± 0.172 | 0.504 ± 0.062
2350 (sense fUmGfUmCfGmGfCmUfUmUfUmUfGmCfCmAfUmCfAdT; antisense dTfGmAfUmGfGmCfAmAfAmAfAmGfCmCfGmAfCmAdT*dT; siRNA) [compound 2350] | 0.755 ± 0.085 | 0.678 ± 0.105
2351 (sense fGmUfCmGfGmCfUmUfUmUfUmGfCmCfAmUfCmUfAdT; antisense dTfAmGfAmUfGmGfCmAfAmAfAmAfGmCfCmGfAmCdT*dT; siRNA) [compound 2351] | 1.216 ± 0.415 | 1.306 ± 0.216
2352 (sense fAmUfCmUfGmUfGmAfUmAfUmGfCmCfAmUfAmGfAdT; antisense dTfCmUfAmUfGmGfCmAfUmAfUmCfAmCfAmGfAmUdT*dT; siRNA) [compound 2352] | 1.012 ± 0.048 | 0.749 ± 0.049
2353 (sense fUmGfCmCfAmUfAmGfGmUfGmUfGmAfCmAfAmUfAdT; antisense dTfAmUfUmGfUmCfAmCfAmCfCmUfAmUfGmGfCmAdT*dT; siRNA) [compound 2353] | 0.635 ± 0.156 | 0.324 ± 0.075
2354 (sense fCmCfAmUfAmGfGmUfGmUfGmAfCmAfAmUfCmCfAdT; antisense dTfGmGfAmUfUmGfUmCfAmCfAmCfCmUfAmUfGmGdT*dT; siRNA) [compound 2354] | 1.043 ± 0.239 | 0.741 ± 0.189
2355 (sense fCmAfUmAfGmGfUmGfUmGfAmCfAmAfUmCfCmGfAdT; antisense dTfCmGfGmAfUmUfGmUfCmAfCmAfCmCfUmAfUmGdT*dT; siRNA) [compound 2355] | 0.457 ± 0.066 | 0.248 ± 0.063
2356 (sense fAmUfAmGfGmUfGmUfGmAfCmAfAmUfCmCfGmAfAdT; antisense dTfUmCfGmGfAmUfUmGfUmCfAmCfAmCfCmUfAmUdT*dT; siRNA) [compound 2356] | 0.574 ± 0.006 | 0.210 ± 0.023
2357 (sense fGmGfUmGfUmGfAmCfAmAfUmCfCmGfAmGfCmAfAdT; antisense dTfUmGfCmUfCmGfGmAfUmUfGmUfCmAfCmAfCmCdT*dT; siRNA) [compound 2357] | 0.737 ± 0.082 | 0.435 ± 0.062
2358 (sense fAmCfAmAfUmCfCmGfAmGfCmAfGmUfGmGfAmGfAdT; antisense dTfCmUfCmCfAmCfUmGfCmUfCmGfGmAfUmUfGmUdT*dT; siRNA) [compound 2358] | 0.647 ± 0.113 | 0.731 ± 0.123
2359 (sense fCmCfGmAfGmCfAmGfUmGfGmAfGmUfCmAfUmUfAdT; antisense dTfAmAfUmGfAmCfUmCfCmAfCmUfGmCfUmCfGmGdT*dT; siRNA) [compound 2359] | 0.576 ± 0.208 | 0.354 ± 0.022

Substance | Relative Rluc-Hif2α (0.1 nM RNAi trigger) | Relative Rluc-Hif2α (1 nM RNAi trigger)
2360 (sense fGmGfGmAfGmCfAmCfUmGfCmGfCmGfCmUfAmUfAdT; antisense dTfAmUfAmGfCmGfCmGfCmAfGmUfGmCfUmCfCmCdT*dT; siRNA) [compound 2360] | 1.102 ± 0.119 | 0.962 ± 0.167
2361 (sense fGmGfAmGfCmAfCmUfGmCfGmCfGmCfUmAfUmCfAdT; antisense dTfGmAfUmAfGmCfGmCfGmCfAmGfUmGfCmUfCmCdT*dT; siRNA) [compound 2361] | 0.800 ± 0.198 | 0.603 ± 0.133
2362 (sense fAmGfCmAfCmUfGmCfGmCfGmCfUmAfUmCfCmCfAdT; antisense dTfGmGfGmAfUmAfGmCfGmCfGmCfAmGfUmGfCmUdT*dT; siRNA) [compound 2362] | 0.673 ± 0.089 | 0.454 ± 0.069
2363 (sense fUmAfUmUfGmCfUmGfCmCfAmAfGmAfGmGfGmUfAdT; antisense dTfAmCfCmCfUmCfUmUfGmGfCmAfGmCfAmAfUmAdT*dT; siRNA) [compound 2363] | 0.653 ± 0.199 | 0.452 ± 0.091
2364 (sense fGmGfUmCfUmGfAmUfGmGfCmAfCmGfUmUfGmUfAdT; antisense dTfAmCfAmAfCmGfUmGfCmCfAmUfCmAfGmAfCmCdT*dT; siRNA) [compound 2364] | 1.070 ± 0.042 | 0.855 ± 0.282
2365 (sense fCmUfGmAfUmGfGmCfAmCfGmUfUmGfUmGfGmGfAdT; antisense dTfCmCfCmAfCmAfAmCfGmUfGmCfCmAfUmCfAmGdT*dT; siRNA) [compound 2365] | 1.132 ± 0.107 | 1.259 ± 0.247
2366 (sense fGmGfCmAfCmGfUmUfGmUfGmGfGmGfUmCfGmGfAdT; antisense dTfCmCfGmAfCmCfCmCfAmCfAmAfCmGfUmGfCmCdT*dT; siRNA) [compound 2366] | 0.879 ± 0.223 | 0.695 ± 0.115
2367 (sense fGmCfAmCfGmUfUmGfUmGfGmGfGmUfCmGfGmGfAdT; antisense dTfCmCfCmGfAmCfCmCfCmAfCmAfAmCfGmUfGmCdT*dT; siRNA) [compound 2367] | 0.665 ± 0.064 | 0.376 ± 0.039
2368 (sense fCmAfCmGfUmUfGmUfGmGfGmGfUmCfGmGfGmGfAdT; antisense dTfCmCfCmCfGmAfCmCfCmCfAmCfAmAfCmGfUmGdT*dT; siRNA) [compound 2368] | 1.036 ± 0.063 | 1.140 ± 0.221
2369 (sense fGmCfGmGfGmGfAmAfGmUfGmCfUmCfUmAfAmCfAdT; antisense dTfGmUfUmAfGmAfGmCfAmCfUmUfCmCfCmCfGmCdT*dT; siRNA) [compound 2369] | 0.464 ± 0.032 | 0.338 ± 0.055
2370 (sense fCmGfGmGfGmAfAmGfUmGfCmUfCmUfAmAfCmUfAdT; antisense dTfAmGfUmUfAmGfAmGfCmAfCmUfUmCfCmCfCmGdT*dT; siRNA) [compound 2370] | 0.498 ± 0.128 | 0.294 ± 0.026
2371 (sense fUmUfAmAfGmGfUmUfUmUfGmUfUmGfCmUfAmGfAdT; antisense dTfCmUfAmGfCmAfAmCfAmAfAmAfCmCfUmUfAmAdT*dT; siRNA) [compound 2371] | 0.193 ± 0.030 | 0.166 ± 0.037
2372 (sense fGmUfUmGfCmUfAmGfCmCfCmUfUmCfAmAfGmUfAdT; antisense dTfAmCfUmUfGmAfAmGfGmGfCmUfAmGfCmAfAmCdT*dT; siRNA) [compound 2372] | 0.831 ± 0.103 | 0.514 ± 0.044
2373 (sense fGmAfGmCfUmAfUmGfUmGfAmCfUmCfGmGfAmUfAdT; antisense dTfAmUfCmCfGmAfGmUfCmAfCmAfUmAfGmCfUmCdT*dT; siRNA) [compound 2373] | 0.369 ± 0.082 | 0.162 ± 0.032
2374 (sense fGmCfUmAfUmGfUmGfAmCfUmCfGmGfAmUfGmGfAdT; antisense dTfCmCfAmUfCmCfGmAfGmUfCmAfCmAfUmAfGmCdT*dT; siRNA) [compound 2374] | 0.355 ± 0.020 | 0.192 ± 0.014
2375 (sense fCmGfGmAfUmGfGmUfCmUfUmUfCmAfCmAfCmGfAdT; antisense dTfCmGfUmGfUmGfAmAfAmGfAmCfCmAfUmCfCmGdT*dT; siRNA) [compound 2375] | 0.481 ± 0.062 | 0.305 ± 0.040
2376 (sense fGmAfUmGfGmUfCmUfUmUfCmAfCmAfCmGfGmCfAdT; antisense dTfGmCfCmGfUmGfUmGfAmAfAmGfAmCfCmAfUmCdT*dT; siRNA) [compound 2376] | 0.546 ± 0.115 | 0.228 ± 0.029
